Active and inactive are the calls of the source. The rule behind the calls is not given here.
System: CCRIS mutagenicity, Ames/micronucleus/aberration tests
Assay: CCRIS mutagenicity studies
[1] = Test System: AMES SALMONELLA TYPHIMURIUM, Strain/Indicator: TA98, Metabolic Activation: NONE, Method: PREINCUBATION
[2] = Test System: AMES SALMONELLA TYPHIMURIUM, Strain/Indicator: TA100, Metabolic Activation: NONE, Method: PREINCUBATION
[3] = Test System: AMES SALMONELLA TYPHIMURIUM, Strain/Indicator: TA1535, Metabolic Activation: NONE, Method: PREINCUBATION
[4] = Test System: AMES SALMONELLA TYPHIMURIUM, Strain/Indicator: TA100, Metabolic Activation: NONE, Method: STANDARD PLATE
[5] = Test System: AMES SALMONELLA TYPHIMURIUM, Strain/Indicator: TA98, Metabolic Activation: NONE, Method: STANDARD PLATE
[6] = Test System: AMES SALMONELLA TYPHIMURIUM, Strain/Indicator: TA98, Metabolic Activation: RAT, LIVER, S-9, AROCLOR 1254, Method: STANDARD PLATE
[7] = Test System: AMES SALMONELLA TYPHIMURIUM, Strain/Indicator: TA100, Metabolic Activation: RAT, LIVER, S-9, AROCLOR 1254, Method: STANDARD PLATE
[8] = Test System: AMES SALMONELLA TYPHIMURIUM, Strain/Indicator: TA1537, Metabolic Activation: NONE, Method: STANDARD PLATE
[9] = Test System: AMES SALMONELLA TYPHIMURIUM, Strain/Indicator: TA1537, Metabolic Activation: NONE, Method: PREINCUBATION

Measured: mutagenic call

CCCCCCC[CH2][Sn]1([CH2]CCCCCCC)[O]C(=O)C=CC(=O)[O]1
inactive: Test System: AMES SALMONELLA TYPHIMURIUM, Strain/Indicator: TA97, Metabolic Activation: HAMSTER, LIVER, S-9, AROCLOR 1254 (10 OR 30%), Method: PREINCUBATION inactive; negative | Test System: AMES SALMONELLA TYPHIMURIUM, Strain/Indicator: TA97, Metabolic Activation: NONE, Method: PREINCUBATION inactive; negative | Test System: AMES SALMONELLA TYPHIMURIUM, Strain/Indicator: TA97, Metabolic Activation: RAT, LIVER, S-9, AROCLOR 1254 (10 OR 30%), Method: PREINCUBATION inactive; negative | Test System: AMES SALMONELLA TYPHIMURIUM, Strain/Indicator: TA98, Metabolic Activation: HAMSTER, LIVER, S-9, AROCLOR 1254 (10 OR 30%), Method: PREINCUBATION inactive; negative | [1] inactive; negative | Test System: AMES SALMONELLA TYPHIMURIUM, Strain/Indicator: TA98, Metabolic Activation: RAT, LIVER, S-9, AROCLOR 1254 (10 OR 30%), Method: PREINCUBATION inactive; negative | Test System: AMES SALMONELLA TYPHIMURIUM, Strain/Indicator: TA100, Metabolic Activation: HAMSTER, LIVER, S-9, AROCLOR 1254 (10 OR 30%), Method: PREINCUBATION inactive; negative | [2] inactive; negative | Test System: AMES SALMONELLA TYPHIMURIUM, Strain/Indicator: TA100, Metabolic Activation: RAT, LIVER, S-9, AROCLOR 1254 (10 OR 30%), Method: PREINCUBATION inactive; negative | Test System: AMES SALMONELLA TYPHIMURIUM, Strain/Indicator: TA1535, Metabolic Activation: HAMSTER, LIVER, S-9, AROCLOR 1254 (10 OR 30%), Method: PREINCUBATION inactive; negative | [3] inactive; negative | Test System: AMES SALMONELLA TYPHIMURIUM, Strain/Indicator: TA1535, Metabolic Activation: RAT, LIVER, S-9, AROCLOR 1254 (10 OR 30%), Method: PREINCUBATION inactive; negative

C1=CC2=C3OC3c3cc4c(cc3C2C=C1)c1c(c2ccccc24)O1 (stereo not given)
active: [4] active; positive

Oc1ccc(O)c2c(O)c3ccccc3c(O)c12
inactive: [5] inactive; negative | [6] inactive; negative | [4] inactive; negative | [7] inactive; negative | Test System: AMES SALMONELLA TYPHIMURIUM, Strain/Indicator: TA1535, Metabolic Activation: NONE, Method: STANDARD PLATE inactive; negative | Test System: AMES SALMONELLA TYPHIMURIUM, Strain/Indicator: TA1535, Metabolic Activation: RAT, LIVER, S-9, AROCLOR 1254, Method: STANDARD PLATE inactive; negative | Test System: AMES SALMONELLA TYPHIMURIUM, Strain/Indicator: TA1538, Metabolic Activation: RAT, LIVER, S-9, AROCLOR 1254, Method: STANDARD PLATE inactive; negative
active: [8] active; positive | Test System: AMES SALMONELLA TYPHIMURIUM, Strain/Indicator: TA1537, Metabolic Activation: RAT, LIVER, S-9, AROCLOR 1254, Method: STANDARD PLATE active; positive

CN(C)CCNC(=O)c1cccc2cc(-c3ccccc3)oc12
active: [8] active; positive

O=NN(c1ccc([N+](=O)[O-])cc1)C1OC[C@@H](O)[C@H](O)[C@@H]1O (stereo not given in full)
active: [4] active; positive

Nc1cc([N+](=O)[O-])ccc1C(=O)O
active: [1] active; positive | Test System: AMES SALMONELLA TYPHIMURIUM, Strain/Indicator: TA98, Metabolic Activation: RAT, LIVER, S-9, AROCLOR, Method: PREINCUBATION active; positive
inactive: Test System: CHINESE HAMSTER OVARY, Strain/Indicator: CHO-K1-BH4 (HGPRT)/6-THIOGUANINE, Metabolic Activation: NONE inactive; negative | Test System: CHINESE HAMSTER OVARY, Strain/Indicator: CHO-K1-BH4 (HGPRT)/6-THIOGUANINE, Metabolic Activation: S-9 inactive; negative

O=[N+]([O-])c1ccc2c(c1)Cc1cc([N+](=O)[O-])ccc1-2
active: Test System: AMES SALMONELLA TYPHIMURIUM, Strain/Indicator: TA98(1,8-DNP6), Metabolic Activation: NONE, Method: STANDARD PLATE active; positive | Test System: AMES SALMONELLA TYPHIMURIUM, Strain/Indicator: TA98(NR), Metabolic Activation: NONE, Method: STANDARD PLATE active; positive | [1] active; positive | [5] active; positive | [6] active; positive | Test System: AMES SALMONELLA TYPHIMURIUM, Strain/Indicator: TA98, Metabolic Activation: RAT, LIVER, S-9, PCB (10%), Method: PREINCUBATION active; positive | [4] active; positive | [7] active; positive

CN(C)CCN(Cc1ccsc1)c1ccccn1
inactive: Test System: AMES SALMONELLA TYPHIMURIUM, Strain/Indicator: TA98, Metabolic Activation: HAMSTER, LIVER, S-9, AROCLOR 1254 (10%), Method: PREINCUBATION inactive; negative | [1] inactive; negative | Test System: AMES SALMONELLA TYPHIMURIUM, Strain/Indicator: TA98, Metabolic Activation: RAT, LIVER, S-9, AROCLOR 1254 (10%), Method: PREINCUBATION inactive; negative | Test System: AMES SALMONELLA TYPHIMURIUM, Strain/Indicator: TA100, Metabolic Activation: HAMSTER, LIVER, S-9, AROCLOR 1254 (10%), Method: PREINCUBATION inactive; negative | [2] inactive; negative | Test System: AMES SALMONELLA TYPHIMURIUM, Strain/Indicator: TA100, Metabolic Activation: RAT, LIVER, S-9, AROCLOR 1254 (10%), Method: PREINCUBATION inactive; negative | Test System: AMES SALMONELLA TYPHIMURIUM, Strain/Indicator: TA1535, Metabolic Activation: HAMSTER, LIVER, S-9, AROCLOR 1254 (10%), Method: PREINCUBATION inactive; negative | [3] inactive; negative | Test System: AMES SALMONELLA TYPHIMURIUM, Strain/Indicator: TA1535, Metabolic Activation: RAT, LIVER, S-9, AROCLOR 1254 (10%), Method: PREINCUBATION inactive; negative | Test System: AMES SALMONELLA TYPHIMURIUM, Strain/Indicator: TA1537, Metabolic Activation: HAMSTER, LIVER, S-9, AROCLOR 1254 (10%), Method: PREINCUBATION inactive; negative | [9] inactive; negative | Test System: AMES SALMONELLA TYPHIMURIUM, Strain/Indicator: TA1537, Metabolic Activation: RAT, LIVER, S-9, AROCLOR 1254 (10%), Method: PREINCUBATION inactive; negative

O=C(O)Cc1ccc([N+](=O)[O-])cc1
active: [1] active; positive | [2] active; positive
inactive: [3] inactive; negative | [9] inactive; negative | Test System: AMES SALMONELLA TYPHIMURIUM, Strain/Indicator: TA1538, Metabolic Activation: NONE, Method: PREINCUBATION inactive; negative

NNc1ccc([N+](=O)[O-])cc1
active: [1] active; positive | Test System: AMES SALMONELLA TYPHIMURIUM, Strain/Indicator: TA98, Metabolic Activation: RAT, LIVER, S-9, KANECHLOR 500, Method: PREINCUBATION active; positive | [2] active; positive | Test System: AMES SALMONELLA TYPHIMURIUM, Strain/Indicator: TA100, Metabolic Activation: RAT, LIVER, S-9, KANECHLOR 500, Method: PREINCUBATION active; positive

CC(=O)Nc1cc2c(cc1Cl)-c1ccccc1C2
active: [6] active; positive

CC(C)(C)c1cc(/C=C/c2cc(C(C)(C)C)c(O)c(C(C)(C)C)c2)cc(C(C)(C)C)c1O
inactive: [1] inactive; negative | Test System: AMES SALMONELLA TYPHIMURIUM, Strain/Indicator: TA98, Metabolic Activation: RAT, LIVER, S-9, Method: PREINCUBATION inactive; negative | [2] inactive; negative | Test System: AMES SALMONELLA TYPHIMURIUM, Strain/Indicator: TA100, Metabolic Activation: RAT, LIVER, S-9, Method: PREINCUBATION inactive; negative

Cc1c(C(=O)O)c(O)cc2c1C(=O)c1c(O)c([C@@H]3O[C@@H](CO)[C@H](O)[C@@H](O)[C@H]3O)c(O)c(O)c1C2=O
active: Test System: AMES SALMONELLA TYPHIMURIUM, Strain/Indicator: TA100, Method: PREINCUBATION active; positive

[N-]=[N+]=NC[C@H]1O[C@H](O)[C@H](O)[C@H](O)[C@@H]1O
inactive: [5] inactive; negative
active: [4] active; positive

Source: PubChem BioAssay AID1259407 (Chemical Carcinogenesis Research Information System (CCRIS), 2018)
